Measurements published in patent publication US8952024B2, “Herbicidal pyrimidone derivatives” (E I du Pont de Nemours and Company, priority 2009, dated 2015).

What was measured:
Assay in all cases: Test B pre-/postemergence plant response
Assay type in all cases: in vivo
[1] = tested on: velvetleaf (Abutilon theophrasti); conditions: for Velvetleaf plant response rating (0 to 100 scale): 62 g ai/ha, 0 is no effect, 13 to 15 days
Outline: (§1)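 Compound in solvent + surfactant applied pre-em (loam/sand) or post-em (plants 2–18 cm, peat medium); greenhouse hold 13–15 days; visual 0–100 control score.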

soybean (Glycine max) = conditions: for Soybean plant response rating (0 to 100 scale): 62 g ai/ha, 0 is no effect, 13 to 15 days
Outline: as §1

[2] = tested on: johnsongrass (Sorghum halepense); conditions: for Johnsongrass plant response rating (0 to 100 scale): 62 g ai/ha, 0 is no effect, 13 to 15 days
Outline: as §1

kochia (Kochia scoparia) = conditions: for Kochia plant response rating (0 to 100 scale): 62 g ai/ha, 0 is no effect, 13 to 15 days
Outline: as §1

[3] = tested on: large crabgrass (Digitaria sanguinalis); conditions: for Crabgrass, Large plant response rating (0 to 100 scale): 62 g ai/ha, 0 is no effect, 13 to 15 days
Outline: as §1

[4] = tested on: blackgrass (Alopecurus myosuroides); conditions: for Blackgrass plant response rating (0 to 100 scale): 62 g ai/ha, 0 is no effect, 13 to 15 days
Outline: as §1

corn (Zea mays) = conditions: for Corn plant response rating (0 to 100 scale): 62 g ai/ha, 0 is no effect, 13 to 15 days
Outline: as §1

[5] = tested on: Surinam grass (Brachiaria decumbens)
Outline: as §1

[6] = tested on: wheat (Triticum aestivum); conditions: for Wheat plant response rating (0 to 100 scale): 62 g ai/ha, 0 is no effect, 13 to 15 days
Outline: as §1

[7] = tested on: ragweed (common ragweed, Ambrosia elatior); conditions: for Ragweed plant response rating (0 to 100 scale): 62 g ai/ha, 0 is no effect, 13 to 15 days
Outline: as §1

[8] = tested on: goosegrass (Eleusine indica); conditions: for Goosegrass plant response rating (0 to 100 scale): 62 g ai/ha, 0 is no effect, 13 to 15 days
Outline: as §1

[9] = tested on: yellow nutsedge (Cyperus esculentus); conditions: for Nutsedge, Yellow plant response rating (0 to 100 scale): 62 g ai/ha, 0 is no effect, 13 to 15 days
Outline: as §1

[10] = tested on: Italian ryegrass (Lolium multiflorum); conditions: for Ryegrass, Italian plant response rating (0 to 100 scale): 62 g ai/ha, 0 is no effect, 13 to 15 days
Outline: as §1

[11] = tested on: pigweed (Amaranthus retroflexus); conditions: for Pigweed plant response rating (0 to 100 scale): 62 g ai/ha, 0 is no effect, 13 to 15 days
Outline: as §1

wild oat (Avena fatua) = conditions: for Oat, Wild plant response rating (0 to 100 scale): 62 g ai/ha, 0 is no effect, 13 to 15 days
Outline: as §1

[12] = tested on: lambsquarters (Chenopodium album); conditions: for Lambsquarters plant response rating (0 to 100 scale): 62 g ai/ha, 0 is no effect, 13 to 15 days
Outline: as §1

[13] = tested on: downy bromegrass (Bromus tectorum); conditions: for Bromegrass, Downy plant response rating (0 to 100 scale): 62 g ai/ha, 0 is no effect, 13 to 15 days
Outline: as §1

[14] = tested on: woolly cupgrass (Eriochloa villosa); conditions: for Cupgrass, Woolly plant response rating (0 to 100 scale): 62 g ai/ha, 0 is no effect, 13 to 15 days
Outline: as §1

[15] = postemergence, 100 is complete control
[16] = Postemergence, 125 g ai/ha, scale 0 to 100 (0 no effect, 100 complete control)
[17] = Postemergence, 250 g ai/ha, scale 0 to 100 (0 no effect, 100 complete control)
[18] = 31 g ai/ha, postemergence, scale 0 to 100, 0 is no effect, 100 is complete control
[19] = Postemergence, 125 g ai/ha, visual rating after 13 to 15 days, scale 0 (no effect) to 100 (complete control)

COCCn1c(-c2ccco2)ncc(C(=O)C2=C(O)CCCC2=O)c1=O [Compound 111]
15: Johnsongrass plant response rating (0 to 100 scale) [2, 15]
95: Plant response rating, Soybean (soybean (Glycine max); [16]) | Ragweed plant response rating (0 to 100 scale) [7, 15] | Plant response rating, Pigweed [11, 18]
65: Plant response rating, Nutsedge, Yellow [9, 18]
25: Plant response rating, Blackgrass [4, 16]
98: Velvetleaf plant response rating (0 to 100 scale) [1, 15] | Plant response rating, Soybean (soybean (Glycine max); [17]) | Plant response rating, Ragweed [7, 16] | Plant response rating, Ragweed [7, 17] | Plant response rating, Lambsquarters [12, 18] | Lambsquarters plant response rating (0 to 100 scale) [12, 15]
20: Plant response rating, Johnsongrass [2, 16]
40: Plant response rating, Johnsongrass [2, 17] | Plant response rating, Blackgrass [4, 17] | Plant response rating, Cupgrass, Woolly [14, 18]
75: Crabgrass, Large plant response rating (0 to 100 scale) [3, 15] | Nutsedge, Yellow plant response rating (0 to 100 scale) [9, 15] | Plant response rating, Cupgrass, Woolly [14, 16] | Plant response rating, Cupgrass, Woolly [14, 17]
45: Corn plant response rating (0 to 100 scale) (corn (Zea mays); [15])
80: Soybean plant response rating (0 to 100 scale) (soybean (Glycine max); [15]) | Plant response rating, Kochia (kochia (Kochia scoparia); [18]) | Plant response rating, Crabgrass, Large [3, 16] | Plant response rating, Surinam Grass [5, 17] | Plant response rating, Nutsedge, Yellow [9, 16]
10: Plant response rating, Johnsongrass [2, 18] | Plant response rating, Corn (corn (Zea mays); [18]) | Plant response rating, Oat, Wild (wild oat (Avena fatua); [17]) | Plant response rating, Bromegrass, Downy [13, 17]
85: Plant response rating, Crabgrass, Large [3, 17] | Plant response rating, Goosegrass [8, 16] | Plant response rating, Goosegrass [8, 17] | Plant response rating, Nutsedge, Yellow [9, 17]
5: Plant response rating, Blackgrass [4, 18] | Blackgrass plant response rating (0 to 100 scale) [4, 15] | Plant response rating, Wheat [6, 16] | Plant response rating, Ryegrass, Italian [10, 17] | Plant response rating, Bromegrass, Downy [13, 16]
0: Wheat plant response rating (0 to 100 scale) [6, 15] | Ryegrass, Italian plant response rating (0 to 100 scale) [10, 15] | Plant response rating, Ryegrass, Italian [10, 16] | Plant response rating, Oat, Wild (wild oat (Avena fatua); [18]) | Oat, Wild plant response rating (0 to 100 scale) (wild oat (Avena fatua); [15]) | Plant response rating, Oat, Wild (wild oat (Avena fatua); [16]) | Plant response rating, Bromegrass, Downy [13, 18] | Bromegrass, Downy plant response rating (0 to 100 scale) [13, 15]
55: Plant response rating, Corn (corn (Zea mays); [16])
50: Cupgrass, Woolly plant response rating (0 to 100 scale) [14, 15]
100: Plant response rating, Velvetleaf [1, 16] | Plant response rating, Velvetleaf [1, 17] | Kochia plant response rating (0 to 100 scale) (kochia (Kochia scoparia); [15]) | Plant response rating, Kochia (kochia (Kochia scoparia); [16]) | Plant response rating, Kochia (kochia (Kochia scoparia); [17]) | Pigweed plant response rating (0 to 100 scale) [11, 15] | Plant response rating, Pigweed [11, 16] | Plant response rating, Pigweed [11, 17] | Plant response rating, Lambsquarters [12, 16] | Plant response rating, Lambsquarters [12, 17]
70: Plant response rating, Crabgrass, Large [3, 18] | Plant response rating, Surinam Grass [5, 16] | Plant response rating, Goosegrass [8, 18] | Goosegrass plant response rating (0 to 100 scale) [8, 15]
60: Plant response rating, Corn (corn (Zea mays); [17])

O=C1CCCC(O)=C1C(=O)c1cnc(C2CC2)n(-c2ccccc2)c1=O [Compound 87]
45: Plant response rating, Johnsongrass [2, 17]
5: Plant response rating, Johnsongrass [2, 18] | Plant response rating, Blackgrass [4, 18] | Blackgrass plant response rating (0 to 100 scale) [4, 15] | Plant response rating, Ryegrass, Italian [10, 18]
55: Corn plant response rating (0 to 100 scale) (corn (Zea mays); [15])
75: Plant response rating, Corn (corn (Zea mays); [19]) | Plant response rating, Corn (corn (Zea mays); [17]) | Plant response rating, Surinam Grass [5, 18] | Surinam Grass plant response rating (0 to 100 scale) ([5]; 62 g ai/ha, postemergence, 0 is no effect, 100 is complete control, 13 to 15 days) | Plant response rating, Goosegrass [8, 18] | Plant response rating, Nutsedge, Yellow [9, 17] | Cupgrass, Woolly plant response rating (0 to 100 scale) [14, 15] | Plant response rating, Cupgrass, Woolly [14, 19]
60: Nutsedge, Yellow plant response rating (0 to 100 scale) [9, 15] | Plant response rating, Ryegrass, Italian [10, 17] | Oat, Wild plant response rating (0 to 100 scale) (wild oat (Avena fatua); [15]) | Plant response rating, Bromegrass, Downy [13, 19]
100: Plant response rating, Velvetleaf [1, 18] | Velvetleaf plant response rating (0 to 100 scale) [1, 15] | Plant response rating, Velvetleaf [1, 17] | Plant response rating, Soybean (soybean (Glycine max); [17]) | Plant response rating, Kochia (kochia (Kochia scoparia); [18]) | Kochia plant response rating (0 to 100 scale) (kochia (Kochia scoparia); [15]) | Plant response rating, Kochia (kochia (Kochia scoparia); [17]) | Plant response rating, Pigweed [11, 17] | Plant response rating, Lambsquarters [12, 17]
35: Plant response rating, Wheat [6, 18] | Wheat plant response rating (0 to 100 scale) [6, 15]
85: Plant response rating, Crabgrass, Large [3, 18] | Crabgrass, Large plant response rating (0 to 100 scale) [3, 15] | Plant response rating, Surinam Grass [5, 17] | Plant response rating, Ragweed [7, 18]
25: Johnsongrass plant response rating (0 to 100 scale) [2, 15]
98: Plant response rating, Soybean (soybean (Glycine max); [18]) | Soybean plant response rating (0 to 100 scale) (soybean (Glycine max); [15]) | Plant response rating, Crabgrass, Large [3, 17] | Plant response rating, Ragweed [7, 17] | Plant response rating, Goosegrass [8, 17] | Plant response rating, Pigweed [11, 18] | Pigweed plant response rating (0 to 100 scale) [11, 15] | Plant response rating, Lambsquarters [12, 18] | Lambsquarters plant response rating (0 to 100 scale) [12, 15]
40: Plant response rating, Blackgrass [4, 17]
90: Plant response rating, Oat, Wild (wild oat (Avena fatua); [17]) | Plant response rating, Cupgrass, Woolly [14, 17]
20: Plant response rating, Blackgrass [4, 19] | Plant response rating, Corn (corn (Zea mays); [18]) | Plant response rating, Bromegrass, Downy [13, 18]
80: Goosegrass plant response rating (0 to 100 scale) [8, 15] | Plant response rating, Bromegrass, Downy [13, 17]
50: Plant response rating, Wheat [6, 17] | Plant response rating, Oat, Wild (wild oat (Avena fatua); [18]) | Bromegrass, Downy plant response rating (0 to 100 scale) [13, 15] | Plant response rating, Cupgrass, Woolly [14, 18]
10: Plant response rating, Nutsedge, Yellow [9, 18] | Ryegrass, Italian plant response rating (0 to 100 scale) [10, 15]
95: Plant response rating, Crabgrass, Large [3, 19] | Ragweed plant response rating (0 to 100 scale) [7, 15]
